Measurements: patent US20050233470A1, “Methods and compound mixtures for determining protein activity using nmr spectroscopy” (priority 2002, published 2005)

Settings: rat, in vivo
Procedure: Urine samples were collected immediately before administration and then at 1 h and 2.5 h after administration. […] Blood samples were collected immediately before administration and then at 1, 2 and 3 h after administration. After collection, blood samples were spun down at 2000 rpm for 10 min. and the plasma was collected. Both, plasma and urine samples were frozen at −20° C.
Aliquots of the stock solution ([…]) were mixed with 40 μl biofluid (urine or blood plasma) to give a 15 mM trityl radical solution. These solutions were dispensed as droplets into liquid nitrogen to provide the material as vitrified pellets suitable for hyperpolarisation. The solid samples were placed in turn within the DNP magnet and hyperpolarised overnight. The samples were dissolved by injection of a mixture of methanol and acetic acid (100:1). The dissolved samples were quickly manually transferred (approx. 4 s transfer time) to a high-resolution magnet of 9.4 T and single acquisition ^13C-1D-NMR-spectra were acquired.
Quantification of the unknown amount of probe compound/metabolites in the biofluid samples was based on these enhancements and the known amount of probe compound/metabolite used to generate them. […]

| SMILES | Signals present in NMR spectrum of urine sample |
| --- | --- |
| N=C(N)N1Cc2ccccc2C(O)C1 (centres unmarked) [4-OH-Debrisoquine, 4-hydroxy-debrisoquine] | present |
| N=[13C](N)N1CCc2ccccc2C1 [Debrisoquine] | present |
